Measurements as given in patent US20150141580A1, “OPTIMIZED DRUG CONJUGATES” (SynDevRx, Inc., priority 2010, published 2015).

Assay: Pharmacokinetics of polymer conjugate, plasma SDX-7539 by LC-MS/MS
Type: in vivo, Sprague-Dawley rats
Conditions: after SDX-7539 30 mg/kg or SDX-7320 200 mg/kg IV, rat
Protocol: FIG. 6 is a graph showing the plasma concentration of the active metabolite, SDX-7539, as a function of time in Sprague-Dawley rats, to which either the polymer conjugate SDX-7320 (single bolus, intravenous injection, 200 mg/kg) or the small molecule SDX-7539 (single bolus, intravenous injection, 30 mg/kg) has been administered.
The polymer conjugate, SDX-7320, or the in vivo release product, SDX-7539 were administered to Sprague-Dawley rats (N=3). Blood was collected over 48 hours after dosing to determine the plasma concentration of SDX-7539 by LC-MS/MS. The LLOQ for SDX-7539 was 2.5 nM. The terminal elimination half-life for SDX-7539 was estimated by fitting a linear regression to the In[SDX-7539] versus time data. […] Cmax for the polymer is about 2% of the value for the small molecule.

CO[C@@H]1[C@H](OC(=O)NC2CCC(N)CC2)CC[C@]2(CO2)[C@H]1[C@@]1(C)O[C@@H]1CC=C(C)C (stereo partly shown) [SDX-7539]
AUC for SDX-7539: comparable
